{"source": "patent US9877961B2", "about": "“Anticoagulant reversal agents” (PEROSPHERE INC., priority 2011, dated 2018)", "key": {"[1]": {"assay": "DLS association of DAP with rivaroxaban", "assay_type": "binding", "procedure": "(§1) Rivaroxaban (XARELTO®) alone, DAP alone, and DAP:rivaroxaban combinations at mass ratios of 1:1 and 10:1 were added into an aqueous solution and analyzed by dynamic light scattering (DLS) to assess association of the DAP and rivaroxaban. A similar experiment was conducted on apixaban (ELIQUIS®) alone, DAP alone, and DAP:apixaban combinations at mass ratios of 1:1, 10:1 and 100:1. Fondaparinux (ARIXTRA®) alone, DAP alone, and fondaparinux:DAP combinations at mass ratios of 1:1, 10:1 and 100:1 were similarly tested. LMWH (bemiparin; HIBOR®), alone, DAP alone, and LMWH:DAP combinations at mass ratios of 1:1, 10:1, and 100:1 were also tested. The concentration of LMWH tested was 0.1 mg/ml. Therefore, at 1:1, 0.1 mg/ml DAP was tested, at 10:1, 1 mg/ml was tested, and at 100:1, 10 mg/ml DAP was tested."}, "[2]": {"system": "argatroban anticoagulation", "assay": "Argatroban dosed rats given IV DAP", "assay_type": "in vivo, rat", "conditions": "200× IV dose of DAP"}, "[3]": {"system": "edoxaban (LIXIANA®) anticoagulation", "assay": "Rat tail transection bleeding assay, edoxaban", "assay_type": "in vivo", "procedure": "Rat tail bleeding assay or rat tail transection assay is an assay that measures blood loss, e.g., blood loss after drug administration. In one embodiment, where the effect of the compound of the invention (e.g., DAP) is being tested, at the Tmax of the anticoagulant, DAP is administered intravenously. After 20 minutes, rat tails are transected approximately 1 mm from the tip, placed in room temperature saline, and blood is collected for 30 minutes and weighed.\nThree rats each were administered 2 mg of rivaroxaban. One rat received a sham reversal containing no DAP, the second received 2.5 mg of DAP, and the third received 12.5 mg DAP. A fourth fat received sham anticoagulant and reversal doses (“sham”). 20 minutes after the reversal dose, tails were transected 1 mm from the tip, placed in room temperature saline, and blood loss was collected for 30 minutes and then weighed.\nSame procedures were used with 1.25 mg apixaban (ELIQUIS®) alone or in combination with 5 or 12.5 mg DAP; with 15.5 mg dabigatran etexilate (PRADAXA®) alone or in combination with 5 or 12.5 mg DAP; […]"}, "[4]": {"assay": "DLS association of DAP with apixaban", "assay_type": "binding", "procedure": "as §1"}, "[5]": {"system": "dabigatran (PRADAXA®) anticoagulation", "assay": "DAP reversal of dabigatran (PRADAXA®) anticoagulation in vivo, aPTT", "parameters": "species or system rat", "conditions": "15.5 mg/kg PRADAXA®, 100 mg/kg DAP (FIG. 13)"}, "[6]": {"assay": "Dynamic light scattering (DLS) association of DAP with unfractionated heparin", "assay_type": "binding", "conditions": "DAP:heparin 100:1 mass ratio in water", "procedure": "Dynamic light scattering (DLS) was used to assess association of 1 mg/ml unfractionated heparin and 1 mg/ml bemiparin (LMWH; HIBOR®), either alone or in combination with […] DAP in water (mass ratios of 100:1 of DAP to heparin or LMWH)."}, "[7]": {"system": "LMWH (bemiparin) anticoagulation", "assay": "DAP reversal of LMWH (bemiparin) anticoagulation in vivo, aPTT", "parameters": "species or system rat", "excerpt": "The activated partial thromboplastin time (aPTT) assay is an assay that measures how long it takes for the blood to clot. Blood samples are collected for direct measurement or in tubes with oxalate and citrate to arrest coagulation by calcium until the assay can be performed. In the assay, a phospholipid, an activator (silica, celite, kaolin, ellagic acid, etc.), and calcium are mixed into the plasma to induce coagulation. The assay measures the time until a thrombus (clot) forms.\nA male albino rat, weighing 470 g, was administered 10 mg of bemiparin (an overdose of LMWH) by subcutaneous injection. aPTT time was measured over the course of five hours. Four hours after LMWH administration, the rat received an intravenous dose of 200 mg/kg of DAP (100 mg DAP)."}, "aPTT": {"system": "aPTT", "assay": "Intravenous DAP alone, aPTT in the absence of anticoagulants", "assay_type": "in vivo, rat", "conditions": "0, 2, 10, 25, 50 or 100 mg DAP i.v., no anticoagulant", "procedure": "0, 2, 10, 25, 50 or 100 mg DAP were administered intravenously to male, weight matched CD rats and aPTT was measured."}, "[8]": {"system": "fondaparinux anticoagulation", "assay": "DAP reversal of fondaparinux (ARIXTRA®) anticoagulation in vivo, chromogenic Factor Xa assay", "parameters": "species or system rat", "procedure": "(§2) The anti-factor Xa assay directly measures anti-factor Xa activity. The methodology behind an anti-factor Xa assay is that patient plasma is added to a known amount of excess factor Xa and excess antithrombin. If a factor Xa inhibitor is present in the patient plasma, it will reduce the enzymatic activity of factor Xa. The amount of residual factor Xa is inversely proportional to the amount of anti-Xa agent in the plasma. The amount of residual factor Xa is detected by adding a chromogenic substrate that mimics the natural substrate of factor Xa, making residual factor Xa cleave it, releasing a colored compound that can be detected by a spectrophotometer. […] Results are given in anticoagulant concentration in units/mL of antifactor Xa, such that high values indicate high levels of anticoagulation and low values indicate low levels of anticoagulation.\n5 mg/kg fondaparinux was administered subcutaneously to rats. 200 mg/kg DAP was administered intravenously after 2 hours. Activity was measured by chromogenic 510 k cleared Factor Xa Assay (Biophen) at 10, 20, 30 and 60 minutes after DAP administration."}, "apixaban anticoagulation": {"system": "apixaban anticoagulation", "assay": "DAP reversal of apixaban in human plasma ex vivo, Biophen anti-Factor Xa chromogenic assay", "assay_type": "biochemical", "procedure": "as §2\n218 μg/L or 459 μg/L of rivaroxaban was added to human plasma, with or without 1,250 μg/L or 6,250 μg/L of DAP, respectively. […] DAP effect on anticoagulation was measured by 510 k cleared Biophen anti-Factor Xa chromogenic assay. Rivaroxaban concentrations were determined by comparison with plasma calibration standards, while apixaban concentrations were inferred from stock solution dilutions as calibration standards are not yet available."}, "plasma proteins": {"system": "plasma proteins", "assay": "Plasma protein binding", "assay_type": "in vitro ADME", "conditions": "data not shown"}}, "note": "Entries after “also recorded” stand apart in the source; their conditions may differ.", "data": [{"compound": "N=C(N)NCCC[C@H](N)C(=O)NCCCN1CCN(CCCNC(=O)[C@@H](N)CCCNC(=N)N)CC1", "note": "(stereo in doubt) [DAP, 2-Amino-5-guanidino-pentanoic acid (3-{4-[3-(2-amino-5-guanidino-pentanoylamino)-propyl]-piperazin-1-yl}-propyl)-amide]", "values": [{"measurement": "binding by DLS", "setting": "[1]", "value": "directly bound"}, {"measurement": "anticoagulation of argatroban dosed rats after DAP", "setting": "[2]", "value": "remained anticoagulated"}, {"measurement": "blood loss (blood collected over 30 minutes)", "setting": "[3]; 1.25 mg edoxaban and 12.5 mg DAP, p<0.05 vs edoxaban only", "value": "reduced blood loss to sham dose levels"}, {"measurement": "reversal of edoxaban, blood loss vs anticoagulant only", "setting": "[3]; rat tail transection, 30 minutes", "value": "reversed; also recorded: statistically significant reduction in blood loss"}, {"measurement": "binding by DLS", "setting": "[4]", "value": "directly bound"}, {"measurement": "time until aPTT returned to normal after DAP", "setting": "[5]", "value": "≤ 30", "unit": "min"}, {"measurement": "physical association / binding by DLS", "setting": "[6]", "value": "physically associated; also recorded: directly bound"}, {"measurement": "time until aPTT below baseline after DAP", "setting": "[7]; 200 mg/kg (100 mg) DAP i.v. four hours after 10 mg bemiparin s.c.", "value": "≤ 60", "unit": "min"}, {"measurement": "reversal of subcutaneous LMWH anticoagulation in vivo", "setting": "[7]; rats, aPTT", "value": "reversed"}, {"measurement": "influence of DAP on aPTT", "setting": "aPTT", "value": "did not influence aPTT"}, {"measurement": "time to reversal of fondaparinux anticoagulation", "setting": "[8]; 5 mg/kg fondaparinux s.c., 200 mg/kg DAP i.v. after 2 hours", "value": "≤ 10", "unit": "min"}, {"measurement": "reversal of subcutaneous fondaparinux in vivo", "setting": "[8]; rats, Xa activity", "value": "reversed"}, {"measurement": "effective anticoagulant concentration after DAP", "setting": "apixaban anticoagulation; 156 μg/L apixaban with 1,156 μg/L DAP, 313 μg/L apixaban with 3,125 μg/L DAP", "value": "below the minimum effective concentration"}, {"measurement": "dose dependence of apixaban reversal", "setting": "apixaban anticoagulation; human blood ex vivo", "value": "dose-dependent reversal"}, {"measurement": "plasma protein binding", "setting": "plasma proteins", "value": "did not appreciably bind"}]}]}
